In patent US20220304862A1, “Method And Device For Substance Delivery To The Inner Ear” (UNIVERSITY OF BRIGHTON, priority 2019, published 2022):

System: auditory nerve
Description: Pigmented guinea pigs of similar weight (350-360 g) were anaesthetised with the neurolept anaesthetic technique (0.06 mg/kg body weight atropine sulphate s.c., 30 mg/kg pentobarbitone i.p., 500 μl/kg Hypnorm i.m.). Additional injections of Hypnorm were given every 40 minutes. Additional doses of pentobarbitone were administered as needed to maintain a non-reflexive state. The heart rate was monitored with a pair of skin electrodes placed on both sides of the thorax. The animals were tracheotomized and artificially respired, and their core temperature was maintained at 38° C. with a heating blanket and a heated head holder.
The middle ear cavity of the ear used for the measurements was opened to reveal the round window. Compound action potentials of the auditory nerve were measured from the cochlear bony ridge in the proximity of the round window membrane using Teflon-coated silver wire coupled to laboratory designed and built extracellular amplifier (James Hartley). Thresholds of the N1 peak of the compound action potentials were estimated visually using 10 ms tone stimuli at a repetition rate of 10 Hz.
For acoustic stimulation sound was delivered to the tympanic membrane by a closed acoustic system comprising two Bruel and Kjaer 4134½″ microphones for delivering tones and a single Bruel and Kjaer 4133½″ microphone for monitoring sound pressure at the tympanum. The microphones were coupled to the ear canal via 1 cm long, 4 mm diameter tubes to a conical speculum, the 1 mm diameter opening of which was placed about 1 mm from the tympanum. The closed sound system was calibrated in situ for frequencies between 1 and 50 kHz. Known sound pressure levels were expressed in dB SPL re 2×10^−5 Pa. All acoustic stimuli in this work were shaped with raised cosines of 0.5 ms duration at the beginning and at the end of stimulation. White noise for acoustical calibration and tone sequences for auditory stimulation were synthesised by a Data Translation 3010 board at 250 kHz sampling rate and delivered to the microphones through low-pass filters (100 kHz cut-off frequency). Signals from the acoustic measuring amplifier (James Hartley) were digitised at 250 kHz sampling rate using the same board and averaged in the time domain. Experimental control, data acquisition and data analysis were performed using a PC with programmes written in MATLAB.
The solution was removed from the round window using paper wicks to observe the wash out effect. […]
In the second experiments, the placement of the same volume of salicylate solution on the round window was followed by stimulation of the ear with oscillating air pressure in the ear canal during a 5-minute period with a consecutive 5-minute period without oscillating air pressure stimulation when the auditory nerve thresholds were measured. […]

Structure (SMILES): O=C([O-])c1ccccc1O.[Na+] [salicylate, sodium salicylate]
- time after which the salicylate effect saturated (oscillating pressure 4 Hz in ear canal, total pressure stimulation time, excluding the 5-minute no-pressure periods): 15 to 20 min
- effect of salicylate on the auditory nerve threshold (passive diffusion, 5 μl of 100 mM on round window, tone frequencies lower than 5 kHz (approximately apical 55% of cochlear length), FIG. 2A): no effect
- increase of threshold response to pure tones with oscillating pressure versus passive diffusion (tones 27, 21, 15, 11, 5, 3 and 1 kHz, particularly low frequencies, pooled data of 5 experiments per protocol, FIG. 4): to a far greater extent
- recovery of compound action potential thresholds after washing out of salicylate from the round window (washout after 80 min (passive) or 74 min (oscillating pressure), FIG. 2): Partial recovery
